According to patent US10017520B2, “Myc modulators and uses thereof” (Massachusetts Institute of Technology, priority 2014, dated 2018):

Key:
Assay type in all cases: cell-based
c-Myc = c-Myc reporter gene assay (Qiagen) in HEK293T cells; conditions: Homo sapiens, HEK-293T, 16 h, treatment 16 hours, Firefly/Renilla ratio
Description: Compound 1's activity against Myc was measured as a Firefly/Renilla ratio, using the Myc reporter assay (Qiagen) in HEK293T cells after treatment with compound 1 for 16 hours. Results are expressed as a mean+/−SD (n=3). SD: standard deviation.
Select compounds described herein that were SMM assay positives were evaluated in several versions of a c-Myc reporter gene assay, including a commercial assay from Qiagen. The compounds' activities against c-Myc were measured as a Firefly/Renilla ratio, using the Myc reporter assay (Qiagen) in HEK293T cells after treatment with the compounds for 16 hours.

Namalwa cells = experiment: Cell viability, CELL TITER GLO assay (Promega), Namalwa cells
Description: (§1) FIGS. 2A to 2E show exemplary results of cell viability assay of compound 1. […] Results were expressed as a mean+/−SEM (n=3). RLU: Relative Luminescence Units.
(§2) The effect of compound 1 on cell viability in several cancer cell lines were determined. The cancer cell lines employed in the assay included those corresponding to hematopoietic and solid tumors. Exemplary results are shown in FIGS. 2A to 2E, where viability was assessed by CELL TITER GLO assay (Promega). Compound 1 was also submitted in a blinded fashion to the National Cancer Institute's CTD cancer cell line profiling pipeline, which enabled sensitivity profiling in about 800 cancer cell lines with annotation of specific genomic lesions that impart on human cancers (FIGS. 3A to 3B). […] The effects of other compounds described herein on cell viability in several cancer cell lines were also determined, and exemplary results are shown in Table 2, where viability was assessed by CELL TITER GLO assay (Promega).

NCIH1975 cells = experiment: Cell viability, CELL TITER GLO assay (Promega), NCIH1975 cells; conditions: Homo sapiens, NCI-H1975
Description: as §1, §2

Eu-Myc Arf −/− cells = experiment: Cell viability, CELL TITER GLO assay (Promega), Eu-Myc Arf −/− cells
Description: as §2

O=C(O)CN1C(=O)S/C(=C\c2ccc(Sc3nc4ccccc4[nH]3)o2)C1=O [Compound 26]
IC50 (c-Myc): 33.6 µM
IC50 (Namalwa cells): > 50 µM
IC50 (NCIH1975 cells): > 50 µM
IC50 (Eu-Myc Arf −/− cells): > 50 µM

CC(C)N1C(=O)S/C(=C\c2ccc(Sc3nc4ccc(Cl)cc4[nH]3)o2)C1=O [Compound 4, (Z)-5-((5-((6-chloro-1H-benzo[d]imidazol-2-yl)thio)furan-2-yl)methylene)-3-isopropylthiazolidine-2,4-dione]
IC50 (c-Myc): 0.79 µM
IC50 (Namalwa cells): 12.4 µM
IC50 (NCIH1975 cells): 17.3 µM
IC50 (Eu-Myc Arf −/− cells): 11 µM

CC(C)N1C(=O)N/C(=C\c2ccc(Sc3nc4ccccc4[nH]3)o2)C1=O [Compound 8, (Z)-5-((5-((1H-benzo[d]imidazol-2-yl)thio)furan-2-yl)methylene)-3-isopropylimidazolidine-2,4-dione]
IC50 (c-Myc): 0.83 µM
IC50 (Namalwa cells): > 50 µM
IC50 (NCIH1975 cells): > 50 µM
IC50 (Eu-Myc Arf −/− cells): 11.8 µM

CC(C)N1C(=O)S/C(=C\c2ccc(Sc3nc4cccc(Cl)c4[nH]3)o2)C1=O [Compound 28, (Z)-5-(5-(((7-chloro-H-benzo[d]imidazol-2-yl)thio)furan-2-yl)methylene)-3-isopropylthiazolidine-2,4-dione]
IC50 (c-Myc): 0.98 µM
IC50 (Namalwa cells): 9.41 µM
IC50 (NCIH1975 cells): 15.6 µM
IC50 (Eu-Myc Arf −/− cells): 5.36 µM

CC(C)N1C(=O)S/C(=C\c2ccc(Sc3nc4cccnc4[nH]3)o2)C1=O [Compound 10, (Z)-5-((5-((3H-imidazo[4,5-b]pyridin-2-yl)thio)furan-2-yl)methylene)-3-isopropylthiazolidine-2,4-dione]
IC50 (c-Myc): 5.6 µM
IC50 (Namalwa cells): > 50 µM
IC50 (NCIH1975 cells): > 50 µM
IC50 (Eu-Myc Arf −/− cells): 33.1 µM

O=C1C/C(=C\c2ccc(Sc3nc4ccccc4[nH]3)o2)C(=O)N1 [Compound 9, (E)-3-((5-((1H-benzo[d]imidazol-2-yl)thio)furan-2-yl)methylene)pyrrolidine-2,5-dione]
IC50 (c-Myc): 9.02 µM
IC50 (Namalwa cells): > 50 µM
IC50 (NCIH1975 cells): > 50 µM
IC50 (Eu-Myc Arf −/− cells): > 50 µM

CC(C)c1ccc2nc(Sc3ccc(/C=C4\SC(=O)N(C(C)C)C4=O)o3)[nH]c2c1 [Compound 29, (Z)-3-isopropyl-5-((5-((6-isopropyl-1H-benzo[d]imidazol-2-yl)thio)furan-2-yl)methylene)thiazolidine-2,4-dione]
IC50 (c-Myc): 0.64 µM
IC50 (Namalwa cells): 15.3 µM
IC50 (NCIH1975 cells): 19.9 µM
IC50 (Eu-Myc Arf −/− cells): 13.1 µM

OCc1ccc(Sc2nc3ccccc3[nH]2)o1 [Compound 40, (5-((1H-benzo[d]imidazol-2-yl)thio)furan-2-yl)methanol]
IC50 (c-Myc): > 40 µM
IC50 (Namalwa cells): > 50 µM
IC50 (NCIH1975 cells): > 50 µM
IC50 (Eu-Myc Arf −/− cells): 14.1 µM

CC(C)N1C(=O)S/C(=C\c2ccc(Sc3nc4ccccc4s3)o2)C1=O [Compound 3, (Z)-5-((5-(benzo[d]thiazol-2-ylthio)furan-2-yl)methylene)-3-isopropylthiazolidine-2,4-dione]
IC50 (c-Myc): 5.72 µM
IC50 (Namalwa cells): 31.1 µM
IC50 (NCIH1975 cells): > 50 µM
IC50 (Eu-Myc Arf −/− cells): > 50 µM

Cc1cccc2nc(Sc3ccc(/C=C4\SC(=O)N(C(C)C)C4=O)o3)[nH]c12 [Compound 23, (Z)-3-isopropyl-5-((5-((7-methyl-1H-benzo[d]imidazol-2-yl)thio)furan-2-yl)methylene)thiazolidine-2,4-dione]
IC50 (c-Myc): 1.5 µM
IC50 (Namalwa cells): 33.9 µM
IC50 (NCIH1975 cells): 28.2 µM
IC50 (Eu-Myc Arf −/− cells): 10.5 µM

CC(C)N1C(=O)S/C(=C\c2ccc(Sc3nc4cc(Cl)c(Cl)cc4[nH]3)o2)C1=O [Compound 25, (Z)-5-((5-((5,6-dichloro-1H-benzo[d]imidazol-2-yl)thio)furan-2-yl)methylene)-3-isopropylthiazolidine-2,4-dione]
IC50 (c-Myc): 0.63 µM
IC50 (Namalwa cells): 3.95 µM
IC50 (NCIH1975 cells): 7.88 µM
IC50 (Eu-Myc Arf −/− cells): 5.51 µM

CC(C)N1C(=O)S/C(=C\c2ccc(Sc3nc4ccc(C(F)(F)F)cc4[nH]3)o2)C1=O [Compound 24, (Z)-3-isopropyl-5-((5-((6-(trifluoromethyl)-1H-benzo[d]imidazol-2-yl)thio)furan-2-yl)methylene)thiazolidine-2,4-dione]
IC50 (c-Myc): 0.64 µM
IC50 (Namalwa cells): 7.94 µM
IC50 (NCIH1975 cells): 12.5 µM
IC50 (Eu-Myc Arf −/− cells): 11.2 µM
